From US20190151312A1, “HEPARAN SULFATE BIOSYNTHESIS INHIBITORS FOR THE TREATMENT OF DISEASES” (BioMarin Pharmaceutical Inc., priority 2014, published 2019)

Test system: GM01896 cells (MPS II dermal fibroblasts)
Experiment: Assay 1: MPS cellular assay, MPS II (heparan sulfate disaccharide biomarkers by LC-MS)
Format: cell-based, human
Conditions: Homo sapiens, Fibroblast, Assay 1 for MPS II, heparan sulfate disaccharide biomarkers (I2a4, I2a6, I2S0 and/or I2S6), read-out: IC50 Range
In short: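 MPS II patient dermal fibroblasts (GM01896) treated with compound at ≤30 μM for 4 to 21 days. Heparan sulfate GAGs isolated by anion exchange, digested with heparinases I-III, aniline-tagged against [13C6]aniline standards and quantified by LC-MS; IC50 from curve fitting. Viability monitored by alamar blue or ATP.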

Compound | IC50
Clc1ccc(Nc2cc(-c3ccc4ncn(CCN5CCOCC5)c4c3)nc(N3CCOCC3)n2)cc1 [(4-chlorophenyl){2-morpholin-4-yl-6-[1-(2-morpholin-4-ylethyl)benzimidazol-6-yl]pyrimidin-4-yl}amine] | < 500 nM
Clc1ccc(Nc2cc(-c3ccc4cnn(CCN5CCCC5)c4c3)nc(N3CCOCC3)n2)cc1 [(4-chlorophenyl){2-morpholin-4-yl-6-[1-(2-pyrrolidinylethyl)(1H-indazol-6-yl)]pyrimidin-4-yl}amine] | 1000 to 5000 nM
Clc1ccc(Nc2cc(-c3ccc4c(c3)ncn4CCN3CCCC3)nc(N3CCOCC3)n2)cc1 [(4-chlorophenyl){2-morpholin-4-yl-6-[1-(2-pyrrolidinylethyl)benzimidazol-5-yl]pyrimidin-4-yl}amine] | 1000 to 5000 nM
Clc1ccc(Nc2cc(-c3ccc4ncn(CCN5CCCC5)c4c3)nc(N3CCOCC3)n2)cc1 [(4-chlorophenyl){2-morpholin-4-yl-6-[1-(2-pyrrolidinylethyl)benzimidazol-6-yl]pyrimidin-4-yl}amine] | 500 to 1000 nM
Clc1ccc(Nc2cc(-c3ccc4c(cnn4CCCN4CCOCC4)c3)nc(N3CCOCC3)n2)cc1 [(4-chlorophenyl){2-morpholin-4-yl-6-[1-(3-morpholin-4-ylpropyl)(1H-indazol-5-yl)]pyrimidin-4-yl}amine] | 1000 to 5000 nM
Clc1ccc(Nc2cc(-c3ccc4cnn(CCCN5CCOCC5)c4c3)nc(N3CCOCC3)n2)cc1 [(4-chlorophenyl){2-morpholin-4-yl-6-[1-(3-morpholin-4-ylpropyl)(1H-indazol-6-yl)]pyrimidin-4-yl}amine] | 1000 to 5000 nM
Clc1ccc(Nc2cc(-c3ccc4c(c3)ncn4CCCN3CCOCC3)nc(N3CCOCC3)n2)cc1 [(4-chlorophenyl){2-morpholin-4-yl-6-[1-(3-morpholin-4-ylpropyl)benzimidazol-5-yl]pyrimidin-4-yl}amine] | 1000 to 5000 nM
Clc1ccc(Nc2cc(-c3ccc4ncn(CCCN5CCOCC5)c4c3)nc(N3CCOCC3)n2)cc1 [(4-chlorophenyl){2-morpholin-4-yl-6-[1-(3-morpholin-4-ylpropyl)benzimidazol-6-yl]pyrimidin-4-yl}amine] | 500 to 1000 nM
Clc1ccc(Nc2cc(-c3ccc4cnn(CCCN5CCCC5)c4c3)nc(N3CCOCC3)n2)cc1 [(4-chlorophenyl){2-morpholin-4-yl-6-[1-(3-pyrrolidinylpropyl)(1H-indazol-6-yl)]pyrimidin-4-yl}amine] | 1000 to 5000 nM
Clc1ccc(Nc2cc(-c3ccc4ncn(CCCN5CCCC5)c4c3)nc(N3CCOCC3)n2)cc1 [(4-chlorophenyl){2-morpholin-4-yl-6-[1-(3-pyrrolidinylpropyl)benzimidazol-6-yl]pyrimidin-4-yl}amine] | 500 to 1000 nM
Cn1nc(CCN2CCOCC2)c2ccc(-c3nc(N4CCOCC4)nc(Nc4ccc(Cl)cc4)c3F)cc21 [(4-chlorophenyl){5-fluoro-6-[1-methyl-3-(2-morpholin-4-ylethyl)(1H-indazol-6-yl)]-2-morpholin-4-ylpyrimidin-4-yl}amine] | 1000 to 5000 nM
COCCn1ncc2ccc(-c3cc(Nc4ccc(Cl)cc4)nc(N4CCOCC4)n3)cc21 [(4-chlorophenyl){6-[1-(2-methoxyethyl)(1H-indazol-6-yl)]-2-morpholin-4-ylpyrimidin-4-yl}amine] | 1000 to 5000 nM
COCCn1cnc2ccc(-c3cc(Nc4ccc(Cl)cc4)nc(N4CCOCC4)n3)cc21 [(4-chlorophenyl){6-[1-(2-methoxyethyl)benzimidazol-6-yl]-2-morpholin-4-ylpyrimidin-4-yl}amine] | 500 to 1000 nM
Clc1ccc(Nc2cc(-c3ccc4cnn(CC5CC5)c4c3)nc(N3CCOCC3)n2)cc1 [(4-chlorophenyl){6-[1-(cyclopropylmethyl)(1H-indazol-6-yl)]-2-morpholin-4-ylpyrimidin-4-yl}amine] | 1000 to 5000 nM
Clc1ccc(Nc2cc(-c3ccc4c(c3)ncn4CC3CC3)nc(N3CCOCC3)n2)cc1 [(4-chlorophenyl){6-[1-(cyclopropylmethyl)benzimidazol-5-yl]-2-morpholin-4-ylpyrimidin-4-yl}amine] | 500 to 1000 nM
Clc1ccc(Nc2cc(-c3ccc4ncn(CC5CC5)c4c3)nc(N3CCOCC3)n2)cc1 [(4-chlorophenyl){6-[1-(cyclopropylmethyl)benzimidazol-6-yl]-2-morpholin-4-ylpyrimidin-4-yl}amine] | 500 to 1000 nM
Cn1c(CCN2CCOCC2)nc2ccc(-c3cc(Nc4ccc(Cl)cc4)nc(N4CCOCC4)n3)cc21 [(4-chlorophenyl){6-[1-methyl-2-(2-morpholin-4-ylethyl)benzimidazol-6-yl]-2-morpholin-4-ylpyrimidin-4-yl}amine] | < 500 nM
Cn1c(CCN2CCCC2)nc2ccc(-c3cc(Nc4ccc(Cl)cc4)nc(N4CCOCC4)n3)cc21 [(4-chlorophenyl){6-[1-methyl-2-(2-pyrrolidinylethyl)benzimidazol-6-yl]-2-morpholin-4-ylpyrimidin-4-yl}amine] | < 500 nM

Compound | IC50
Cn1c(CCCN2CCOCC2)nc2ccc(-c3cc(Nc4ccc(Cl)cc4)nc(N4CCOCC4)n3)cc21 [(4-chlorophenyl){6-[1-methyl-2-(3-morpholin-4-ylpropyl)benzimidazol-6-yl]-2-morpholin-4-ylpyrimidin-4-yl}amine] | 1000 to 5000 nM
Cn1c(CN2CCOCC2)nc2ccc(-c3cc(Nc4ccc(Cl)cc4)nc(N4CCOCC4)n3)cc21 [(4-chlorophenyl){6-[1-methyl-2-(morpholin-4-ylmethyl)benzimidazol-6-yl]-2-morpholin-4-ylpyrimidin-4-yl}amine] | 500 to 1000 nM
Cn1c(CN2CCCC2)nc2ccc(-c3cc(Nc4ccc(Cl)cc4)nc(N4CCOCC4)n3)cc21 [(4-chlorophenyl){6-[1-methyl-2-(pyrrolidinylmethyl)benzimidazol-6-yl]-2-morpholin-4-ylpyrimidin-4-yl}amine] | 1000 to 5000 nM
Cn1nc(CCN2CCOCC2)c2ccc(-c3cc(Nc4ccc(Cl)cc4)nc(N4CCOCC4)n3)cc21 [(4-chlorophenyl){6-[1-methyl-3-(2-morpholin-4-ylethyl)(1H-indazol-6-yl)]-2-morpholin-4-ylpyrimidin-4-yl}amine] | 500 to 1000 nM
Cn1nc(CCN2CCNCC2)c2ccc(-c3cc(Nc4ccc(Cl)cc4)nc(N4CCOCC4)n3)cc21 [(4-chlorophenyl){6-[1-methyl-3-(2-piperazinylethyl)(1H-indazol-6-yl)]-2-morpholin-4-ylpyrimidin-4-yl}amine] | 1000 to 5000 nM
Cn1nc(CCN2CCCC2)c2ccc(-c3cc(Nc4ccc(Cl)cc4)nc(N4CCOCC4)n3)cc21 [(4-chlorophenyl){6-[1-methyl-3-(2-pyrrolidinylethyl)(1H-indazol-6-yl)]-2-morpholin-4-ylpyrimidin-4-yl}amine] | 500 to 1000 nM
Cn1nc(CCCN2CCOCC2)c2ccc(-c3cc(Nc4ccc(Cl)cc4)nc(N4CCOCC4)n3)cc21 [(4-chlorophenyl){6-[1-methyl-3-(3-morpholin-4-ylpropyl)(1H-indazol-6-yl)]-2-morpholin-4-ylpyrimidin-4-yl}amine] | 1000 to 5000 nM
Cn1nc(CCCN2CCCC2)c2ccc(-c3cc(Nc4ccc(Cl)cc4)nc(N4CCOCC4)n3)cc21 [(4-chlorophenyl){6-[1-methyl-3-(3-pyrrolidinylpropyl)(1H-indazol-6-yl)]-2-morpholin-4-ylpyrimidin-4-yl}amine] | 500 to 1000 nM
CN1CCN(c2nn(C)c3cc(-c4cc(Nc5ccc(Cl)cc5)nc(N5CCOCC5)n4)ccc23)CC1 [(4-chlorophenyl){6-[1-methyl-3-(4-methylpiperazinyl)(1H-indazol-6-yl)]-2-morpholin-4-ylpyrimidin-4-yl}amine] | 1000 to 5000 nM
Cn1nc(CN2CCOCC2)c2ccc(-c3cc(Nc4ccc(Cl)cc4)nc(N4CCOCC4)n3)cc21 [(4-chlorophenyl){6-[1-methyl-3-(morpholin-4-ylmethyl)(1H-indazol-6-yl)]-2-morpholin-4-ylpyrimidin-4-yl}amine] | 1000 to 5000 nM
Cn1nc(CN2CCCC2)c2ccc(-c3cc(Nc4ccc(Cl)cc4)nc(N4CCOCC4)n3)cc21 [(4-chlorophenyl){6-[1-methyl-3-(pyrrolidinylmethyl)(1H-indazol-6-yl)]-2-morpholin-4-ylpyrimidin-4-yl}amine] | 500 to 1000 nM
COCCc1nc2ccc(-c3cc(Nc4ccc(Cl)cc4)nc(N4CCOCC4)n3)cc2n1C [(4-chlorophenyl){6-[2-(2-methoxyethyl)-1-methylbenzimidazol-6-yl]-2-morpholin-4-ylpyrimidin-4-yl}amine] | 500 to 1000 nM
Clc1ccc(Nc2cc(-c3ccc4nn(CC5CC5)cc4c3)nc(N3CCOCC3)n2)cc1 [(4-chlorophenyl){6-[2-(cyclopropylmethyl)(2H-indazol-5-yl)]-2-morpholin-4-ylpyrimidin-4-yl}amine] | 1000 to 5000 nM
Clc1ccc(Nc2cc(-c3ccc4cn(CC5CC5)nc4c3)nc(N3CCOCC3)n2)cc1 [(4-chlorophenyl){6-[2-(cyclopropylmethyl)(2H-indazol-6-yl)]-2-morpholin-4-ylpyrimidin-4-yl}amine] | 1000 to 5000 nM
Cc1nc2cc(-c3cc(Nc4ccc(Cl)cc4)nc(N4CCOCC4)n3)ccc2n1CCN1CCOCC1 [(4-chlorophenyl){6-[2-methyl-1-(2-morpholin-4-ylethyl)benzimidazol-5-yl]-2-morpholin-4-ylpyrimidin-4-yl}amine] | 1000 to 5000 nM
Cc1nc2ccc(-c3cc(Nc4ccc(Cl)cc4)nc(N4CCOCC4)n3)cc2n1CCN1CCOCC1 [(4-chlorophenyl){6-[2-methyl-1-(2-morpholin-4-ylethyl)benzimidazol-6-yl]-2-morpholin-4-ylpyrimidin-4-yl}amine] | 500 to 1000 nM
Cc1nc2cc(-c3cc(Nc4ccc(Cl)cc4)nc(N4CCOCC4)n3)ccc2n1CCN1CCCC1 [(4-chlorophenyl){6-[2-methyl-1-(2-pyrrolidinylethyl)benzimidazol-5-yl]-2-morpholin-4-ylpyrimidin-4-yl}amine] | 500 to 1000 nM
Cc1nc2ccc(-c3cc(Nc4ccc(Cl)cc4)nc(N4CCOCC4)n3)cc2n1CCN1CCCC1 [(4-chlorophenyl){6-[2-methyl-1-(2-pyrrolidinylethyl)benzimidazol-6-yl]-2-morpholin-4-ylpyrimidin-4-yl}amine] | 1000 to 5000 nM
